According to patent publication US6613308B2, “Pulmonary delivery in treating disorders of the central nervous system” (Advanced Inhalation Research, Inc., priority 2000, dated 2003):

How the values were obtained:
[1] = in vivo; settings: Sprague Dawley, rat, 7 mg powder
[2] = cited from earlier work
[3] = in vivo; settings: rat; for bioavailability / bioavailability at 15 min / bioavailability at 60 min: 2 mg
Description: Determinations of plasma levels of L-Dopa were made following IV injection, oral gavage, or insufflation into the lungs. Carbidopa generally is administered to ensure that peripheral decarboxylase activity is completely shut down. In this example, animals received an intraperitoneal (IP) injection of the peripheral decarboxylase inhibitor carbidopa (200 mg/kg) 1 hour prior to administration of L-Dopa. Under ketamine anesthesia, the animals were divided into 3 groups. In the first group of animals, L-Dopa (2 mg) was suspended in saline containing 1% methylcellulose and 1% ascorbic acid and given via oral gavage. In the second group, an insufflation technique was used for pulmonary administration of particles including L-Dopa (20% loading density). A laryngoscope was used to visualize the rat's epiglottis and the blunt-tip insufflation device (PennCentury Insufflation powder delivery device) was inserted into the airway. A bolus of air (3 cc), from an attached syringe, was used to delivery the pre-loaded powder from the chamber of the device into the animal's lungs. A total of 10 mg of powder (2 mg L-Dopa) was delivered. In the third group, a previously-placed femoral cannula was used to delivery a bolus (2-3 second) of L-Dopa (2 mg). Blood samples (200 μL) were withdrawn from each animal using the femoral cannula at the following timepoints: 0 (immediately prior to L-Dopa administration), 2, 5, 15, 30, 60, 120, and 240 minutes following L-Dopa administration. All samples were processed for L-Dopa determinations using HPLC.
Bioavailability was estimated by performing area under the curve (AUC) calculations.

[4] = tested on: rat model of Parkinson's disease (unilateral 6-OHDA lesion); assay: Akinesia task; format: in vivo
[5] = tested on: rat model of Parkinson's disease (unilateral 6-OHDA lesion); assay: Bracing task; format: in vivo
[6] = tested on: rat model of Parkinson's disease (unilateral 6-OHDA lesion); assay: Placing task; format: in vivo
[7] = tested on: rat model of Parkinson's disease (unilateral 6-OHDA lesion); assay: Rotation test; format: in vivo
Description: Animals also were tested on a standard pharmacodynamics rotation test known to be a sensitive and reliable measure of dopamine activity in the brain. […] These doses were chosen for this test because they represent the doses of L-Dopa shown to produce maximal efficacy in the previous functional tests. Following dosing, animals were placed into a cylindrical Plexiglas bucket. […] Animals were also tested for rotation behavior with and without pre-treatment with carbidopa. […] Because the dopamine depletions are unilateral, the uninjected side remained intact and still able respond to changes in dopamine activity. When these animals were injected with a dopamine agonist (i.e. L-Dopa) brain dopamine activity was stimulated preferentially on the intact side. […] The onset and number of rotations provided a measure of both the time course as well as the extent of increased dopamine activity.

[8] = tested on: migraine; settings: cited from earlier work
[9] = cited from earlier work; remark: listed apart in the source

CC(C(=O)O)c1cccc(C(=O)c2ccccc2)c1 (centres unmarked) [Ketoprofen]
concentration at 5 min [1]: 9600 ng/mL | concentration at 15 min [1]: 7600 ng/mL | concentration at 30 min [1]: 5500 ng/mL | concentration at 60 min [1]: 4500 ng/mL | concentration at 120 min [1]: 2400 ng/mL | concentration at 240 min [1]: 1800 ng/mL | concentration at 360 min [1]: 1800 ng/mL | concentration at 480 min [1]: 1300 ng/mL | concentration at 5 min ([1]; po): 1700 ng/mL | concentration at 15 min ([1]; po): 2100 ng/mL | concentration at 30 min ([1]; po): 1900 ng/mL | concentration at 60 min ([1]; po): 2000 ng/mL | concentration at 120 min ([1]; po): 1700 ng/mL | concentration at 240 min ([1]; po): 1400 ng/mL | concentration at 360 min ([1]; po): 1000 ng/mL | concentration at 480 min ([1]; po): 1000 ng/mL | Tmax via the oral route ([2]; oral): about 90 min

N[C@@H](Cc1ccc(O)c(O)c1)C(=O)O [L-Dopa, levodopa]
concentration at 2 min [3]: 5000 ng/mL | bioavailability [3]: ~75% | bioavailability at 15 min [3]: 38% | bioavailability at 60 min [3]: 62% | concentration at 2 min ([3]; po): 1000 ng/mL | bioavailability ([3]; po): 33% | bioavailability at 15 min ([3]; po): 9% | bioavailability at 60 min ([3]; po): 24% | time of maximal effects ([4]; oral 30 mg/kg): ≤ 60 min | time to improved performance ([4]; oral 30 mg/kg): ≤ 30 min | lowest dose with statistically significant (p<0.05) improvements ([4]; pulmonary): 1.0 mg | time of peak benefits ([4]; pulmonary): 15 to 30 min | time to significant improvements ([4]; pulmonary): ≤ 10 min | time of maximal effects ([5]; oral 30 mg/kg): ≤ 60 min | time to improved performance ([5]; oral 30 mg/kg): ≤ 30 min | lowest dose with statistically significant improvements ([5]; pulmonary): 0.5 mg | time of peak benefits ([5]; pulmonary): 15 to 30 min | time to significant improvements ([5]; pulmonary): ≤ 10 min | difference in drug required for equivalent efficacy, oral vs pulmonary ([6]; 30 mg/kg oral vs 1 mg pulmonary, normalized by body weight): ~10 fold | time of maximal effects ([6]; oral 20 mg/kg): 60 min | time of peak performance ([6]; oral 30 mg/kg): 1 to 2 h | time to improved performance with impaired limb ([6]; oral 30 mg/kg): ≤ 30 min | lowest dose with significant improvements ([6]; pulmonary): 0.5 mg | time of peak benefits ([6]; pulmonary, highest dose tested): 15 to 30 min | time to significant improvements ([6]; pulmonary, highest dose tested): ≤ 10 min | time of peak rotations ([7]; oral 30 mg/kg): approximately 30 minutes | rotations during the first 10-15 minutes ([7]; oral 30 mg/kg, carbidopa pre-treatment): < 5 rotations/animal | time of peak rotations ([7]; pulmonary 2 mg total): 25 to 30 min | rotations relative to oral delivery within the first 10-15 minutes ([7]; pulmonary 2 mg total vs oral 30 mg/kg): greater than 3 times

CNS(=O)(=O)Cc1ccc2[nH]cc(CCN(C)C)c2c1 [sumatriptan]
efficacy rate ([8]; administered intravenously (IV)): 90% | efficiency rate ([8]; oral form): approximately 60%

Cc1nnc2n1-c1ccc(Cl)cc1C(c1ccccc1Cl)=NC2 [triazolam]
solubility in alcohol ([9]; alcohol): soluble | solubility in water ([9]; water): poorly soluble

Cc1ccc(-c2nc3ccc(C)cn3c2CC(=O)N(C)C)cc1 [zolpidem]
Tmax ([2]; 5 mg tablet): 1.6 h | ½ Life ([2]; 5 mg tablet): 2.6 h | time to peak plasma levels ([2]; in vivo): about 2 hours
